Source: PMC5619856, “One enzyme, many reactions: structural basis for the various reactions catalyzed by naphthalene 1,2-dioxygenase” (IUCrJ, 2017)

Molecular target: T1, naphthalene 1,2-dioxygenase (NDO) (Pseudomonas putida, UniProt P0A110)
T1 construct: gene ndoB; wild-type terminal oxygenase component, plasmid pDTG121 in E. coli DE3 Star, no tag mentioned; alpha3beta3 hexamer with Rieske [2Fe-2S] and mononuclear iron; with Naphthalene 1,2-dioxygenase system, small oxygenase component
T1 sequence (P0A110 1-449): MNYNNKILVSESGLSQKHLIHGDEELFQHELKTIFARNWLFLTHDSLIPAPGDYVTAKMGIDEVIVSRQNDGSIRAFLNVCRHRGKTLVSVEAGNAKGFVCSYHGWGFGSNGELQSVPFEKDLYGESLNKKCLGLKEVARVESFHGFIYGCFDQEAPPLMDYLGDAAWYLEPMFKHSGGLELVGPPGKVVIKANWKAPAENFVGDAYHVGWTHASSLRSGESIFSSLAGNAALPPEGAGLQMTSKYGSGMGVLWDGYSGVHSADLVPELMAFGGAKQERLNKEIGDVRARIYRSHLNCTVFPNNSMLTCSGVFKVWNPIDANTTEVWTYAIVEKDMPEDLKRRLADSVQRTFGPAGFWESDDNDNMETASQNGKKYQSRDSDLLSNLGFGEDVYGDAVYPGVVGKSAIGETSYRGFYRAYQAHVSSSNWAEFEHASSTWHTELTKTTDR
T1 sequence (P0A112 1-194 partner): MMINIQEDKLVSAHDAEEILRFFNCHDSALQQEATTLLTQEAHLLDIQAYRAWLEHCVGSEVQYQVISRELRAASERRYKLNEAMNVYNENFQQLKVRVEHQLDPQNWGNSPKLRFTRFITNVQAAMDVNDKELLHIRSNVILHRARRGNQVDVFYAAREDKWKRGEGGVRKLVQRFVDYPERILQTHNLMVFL
Assay: X-ray crystal structure (soaked crystal)
Assay type: binding
Details: active site, multiple orientations; crystals pH 5.0-5.8; soaked at least two weeks

| SMILES | X-ray crystal structure (soaked crystal) |
| --- | --- |
| CCOc1ccccc1 [phenetole] | structures of phenetole, thioanisole and ethylphenylsulfide in complex with NDO were solved |
| CSc1ccccc1 [thioanisole] | structures of phenetole, thioanisole and ethylphenylsulfide in complex with NDO were solved |
| CCSc1ccccc1 [ethylphenylsulfide] | structures of phenetole, thioanisole and ethylphenylsulfide in complex with NDO were solved |
